PMC10562414, “GLP-1R signaling neighborhoods associate with the susceptibility to adverse drug reactions of incretin mimetics” (Nature Communications, 2023)
Each block holds one compound with its values, some of them ahead of it.

Experiments:
[1] = Adverse drug event analysis (FAERS, log likelihood ratio); conditions: for proportion, Abdominal pain: ADR_TERM Abdominal pain; for proportion, Eructation: ADR_TERM Eructation; for proportion, Nausea: ADR_TERM Nausea; for proportion, Pancreatic disease: ADR_TERM Pancreatic disease; for proportion, Vomiting: ADR_TERM Vomiting; for logLR: Fig. 6d
GLP-1R = GLP-1R (Homo sapiens, UniProt P43220); experiment: ebBRET pathway activation (effector membrane translocation, 15 pathways) at the plasma membrane (rGFP-CAAX); assay type: cell-based; conditions: plasma membrane rGFP-CAAX, HEK293, agonist incubation 0 min, normalized to the highest responding drug, F test P < 0.00625, n=3-6
[2] = ref [56], [57], cited from earlier work
[3] = Supplementary Fig. 21, first group
[4] = Supplementary Fig. 21, fourth group (r25-r28)
[5] = Supplementary Fig. 21, third group (r21-r24)
[6] = SOC Endocrine disorders, FAERS via Open Targets
[7] = SOC Gastrointestinal disorders, FAERS via Open Targets
[8] = SOC Investigations, FAERS via Open Targets
[9] = SOC Metabolism and nutrition disorders, FAERS via Open Targets

Sequence of GLP-1R (P43220 24-463): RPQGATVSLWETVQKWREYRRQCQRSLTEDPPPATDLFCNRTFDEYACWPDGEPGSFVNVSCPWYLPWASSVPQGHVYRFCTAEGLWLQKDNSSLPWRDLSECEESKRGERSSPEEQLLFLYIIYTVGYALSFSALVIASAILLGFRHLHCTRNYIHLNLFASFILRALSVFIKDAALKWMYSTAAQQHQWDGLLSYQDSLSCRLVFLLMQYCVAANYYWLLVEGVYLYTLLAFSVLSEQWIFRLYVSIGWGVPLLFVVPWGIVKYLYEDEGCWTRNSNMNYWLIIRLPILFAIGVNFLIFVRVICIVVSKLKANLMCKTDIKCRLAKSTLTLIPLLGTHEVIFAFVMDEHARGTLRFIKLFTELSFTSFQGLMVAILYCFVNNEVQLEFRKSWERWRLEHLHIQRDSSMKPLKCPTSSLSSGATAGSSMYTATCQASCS

SMILES: CCCCCCCCCCCCCCCC(=O)N[C@@H](CCC(=O)NCCCC[C@H](NC(=O)[C@H](C)NC(=O)[C@H](C)NC(=O)[C@H](CCC(N)=O)NC(=O)CNC(=O)[C@H](CCC(=O)O)NC(=O)[C@H](CC(C)C)NC(=O)[C@H](Cc1ccc(O)cc1)NC(=O)[C@H](CO)NC(=O)[C@H](CO)NC(=O)[C@@H](NC(=O)[C@H](CC(=O)O)NC(=O)[C@H](CO)NC(=O)[C@@H](NC(=O)[C@H](Cc1ccccc1)NC(=O)[C@@H](NC(=O)CNC(=O)[C@H](CCC(=O)O)NC(=O)[C@H](C)NC(=O)[C@@H](N)Cc1cnc[nH]1)[C@@H](C)O)[C@@H](C)O)C(C)C)C(=O)N[C@@H](CCC(=O)O)C(=O)N[C@@H](Cc1ccccc1)C(=O)N[C@H](C(=O)N[C@@H](C)C(=O)N[C@@H](Cc1c[nH]c2ccccc12)C(=O)N[C@@H](CC(C)C)C(=O)N[C@H](C(=O)N[C@@H](CCCNC(=N)N)C(=O)NCC(=O)N[C@@H](CCCNC(=N)N)C(=O)NCC(=O)O)C(C)C)[C@@H](C)CC)C(=O)O [Liraglutide]
- proportion, Abdominal pain ([1]; Supplementary Fig. 21): 0.02341
- proportion, Adenocarcinoma pancreas ([1]; Supplementary Fig. 21, ADR_TERM Adenocarcinoma pancreas): 0.01752
- proportion, Eructation ([1]; Supplementary Fig. 21): 0.03019
- proportion, Nausea ([1]; Supplementary Fig. 21): 0.07705
- proportion, Pancreatic disease [1, 3]: 0.08817
- proportion, Pancreatic disease [1, 4]: 0.1539
- proportion, Pancreatic disease ([1]; Supplementary Fig. 21, second group (r20)): 0.02656
- proportion, Pancreatic disease [1, 5]: 0.5446
- proportion, Vomiting ([1]; Supplementary Fig. 21): 0.03854

- Efficacy (normalized), GRK2/Gβγ (GLP-1R; GRK2-D110A-RlucII): 0
- Efficacy (normalized), Gα13 (GLP-1R; PDZRhoGEF-RlucII): 0
- Efficacy (normalized), Gαi1 (GLP-1R; Rap1Gap-RlucII): 0
- Efficacy (normalized), Gαi2 (GLP-1R; Rap1Gap-RlucII): 0
- Efficacy (normalized), Gαi3 (GLP-1R; Rap1Gap-RlucII): 0
- Efficacy (normalized), GαoA (GLP-1R; Rap1Gap-RlucII): 0
- Efficacy (normalized), GαoB (GLP-1R; Rap1Gap-RlucII): 0
- Efficacy (normalized), Gαz (GLP-1R; Rap1Gap-RlucII): 0
- Efficacy (normalized), Gαs (GLP-1R; Rluc8-mGs): 0
- Efficacy (normalized), Gα11 (GLP-1R; p63RhoGEF-RlucII): 0
- Efficacy (normalized), Gα14 (GLP-1R; p63RhoGEF-RlucII): 0
- Efficacy (normalized), Gα15 (GLP-1R; p63RhoGEF-RlucII): 0
- Efficacy (normalized), Gαq (GLP-1R; p63RhoGEF-RlucII): 0
- Efficacy (normalized), βARR2 (GLP-1R; β-arrestin-2-RlucII): 0
SMILES: CC[C@H](C)[C@H](NC(=O)[C@H](Cc1ccccc1)NC(=O)[C@H](CCC(=O)O)NC(=O)[C@H](CCCCN)NC(=O)[C@H](C)NC(=O)[C@H](C)NC(=O)[C@H](CCC(N)=O)NC(=O)CNC(=O)[C@H](CCC(=O)O)NC(=O)[C@H](CC(C)C)NC(=O)[C@H](Cc1ccc(O)cc1)NC(=O)[C@H](CO)NC(=O)[C@H](CO)NC(=O)[C@@H](NC(=O)[C@H](CC(=O)O)NC(=O)[C@H](CO)NC(=O)[C@@H](NC(=O)[C@H](Cc1ccccc1)NC(=O)[C@@H](NC(=O)CNC(=O)[C@H](CCC(=O)O)NC(=O)[C@H](C)NC(=O)[C@H](Cc1c[nH]cn1)NC(=O)[C@H](CCCNC(=N)N)NC(=O)[C@H](CCC(=O)O)NC(=O)[C@H](Cc1ccccc1)NC(=O)[C@H](CCC(=O)O)NC(=O)[C@H](CC(=O)O)NC(=O)[C@@H](N)Cc1c[nH]cn1)[C@@H](C)O)[C@@H](C)O)C(C)C)C(=O)N[C@@H](C)C(=O)N[C@@H](Cc1c[nH]c2ccccc12)C(=O)N[C@@H](CC(C)C)C(=O)N[C@H](C(=O)N[C@@H](CCCCN)C(=O)NCC(=O)N[C@@H](CCCNC(=N)N)C(=O)NCC(=O)O)C(C)C [GLP-1 (1-37)]

SMILES: CC[C@H](C)[C@H](NC(=O)[C@H](Cc1ccccc1)NC(=O)[C@H](CCC(=O)O)NC(=O)[C@H](CCCCNC(=O)COCCOCCNC(=O)COCCOCCNC(=O)CC[C@H](NC(=O)CCCCCCCCCCCCCCCCC(=O)O)C(=O)O)NC(=O)[C@H](C)NC(=O)[C@H](C)NC(=O)[C@H](CCC(N)=O)NC(=O)CNC(=O)[C@H](CCC(=O)O)NC(=O)[C@H](CC(C)C)NC(=O)[C@H](Cc1ccc(O)cc1)NC(=O)[C@H](CO)NC(=O)[C@H](CO)NC(=O)[C@@H](NC(=O)[C@H](CC(=O)O)NC(=O)[C@H](CO)NC(=O)[C@@H](NC(=O)[C@H](Cc1ccccc1)NC(=O)[C@@H](NC(=O)CNC(=O)[C@H](CCC(=O)O)NC(=O)C(C)(C)NC(=O)[C@@H](N)Cc1cnc[nH]1)[C@@H](C)O)[C@@H](C)O)C(C)C)C(=O)N[C@@H](C)C(=O)N[C@@H](Cc1c[nH]c2ccccc12)C(=O)N[C@@H](CC(C)C)C(=O)N[C@H](C(=O)N[C@@H](CCCNC(=N)N)C(=O)NCC(=O)N[C@@H](CCCNC(=N)N)C(=O)NCC(=O)O)C(C)C [Semaglutide]
- logLR ([1]; Endocrine disorders: diabetic ketoacidosis): 101.6
- logLR ([1]; Endocrine disorders: diabetic retinopathy): 83.01
- logLR ([1]; Gastrointestinal disorders: abdominal pain): 80.54
- logLR ([1]; Gastrointestinal disorders: diarrhoea): 91.4
- logLR ([1]; Gastrointestinal disorders: eructation): 76.22
- logLR ([1]; Gastrointestinal disorders: gastrointestinal disorder): 66.93
- logLR ([1]; Gastrointestinal disorders: nausea): 351
- logLR ([1]; Gastrointestinal disorders: pancreatic carcinoma): 37.15
- logLR ([1]; Gastrointestinal disorders: pancreatitis): 599.6
- logLR ([1]; Gastrointestinal disorders: pancreatitis acute): 54.4
- logLR ([1]; Gastrointestinal disorders: vomiting): 332.8
- logLR ([1]; General disorders and administration site conditions: decreased appetite): 42.19
- logLR ([1]; Investigations: blood glucose increased): 43.39
- logLR ([1]; Investigations: glycosylated haemoglobin increased): 60.95
- logLR ([1]; Investigations: heart sounds): 49.27
- logLR ([1]; Investigations: lipase increased): 49.97
- logLR ([1]; Investigations: weight decreased): 122.9
- logLR ([1]; Metabolism and nutrition disorders: dehydration): 53.42
- logLR ([1]; Metabolism and nutrition disorders: euglycaemic diabetic ketoacidosis): 71.84
- logLR ([1]; Metabolism and nutrition disorders: retinopathy): 95.38
- logLR ([1]; Renal and urinary disorders: acute kidney injury): 39.07
- logLR ([1]; Respiratory disorders: prolonged expiration): 36.95
- proportion, Abdominal pain ([1]; Supplementary Fig. 21): 0.04766
- proportion, Diarrhoea ([1]; Supplementary Fig. 21, ADR_TERM Diarrhoea): 0.05408
- proportion, Eructation ([1]; Supplementary Fig. 21): 0.0451
- proportion, Gastrointestinal disorder ([1]; Supplementary Fig. 21, ADR_TERM Gastrointestinal disorder): 0.03961
- proportion, Nausea ([1]; Supplementary Fig. 21): 0.2077
- proportion, Pancreatic disease [1, 3]: 0.02198
- proportion, Pancreatic disease [1, 4]: 0.03219
- proportion, Pancreatic disease [1, 5]: 0.3548
- proportion, Vomiting ([1]; Supplementary Fig. 21): 0.1969
- pancreatitis reports, in words ([2]; FAERS): lower incidence of pancreatitis
- logLR, diabetic ketoacidosis [2, 6]: 101.6
- logLR, diabetic retinopathy [2, 6]: 83.01
- logLR, abdominal pain [2, 7]: 80.54
- logLR, diarrhoea [2, 7]: 91.4
- logLR, eructation [2, 7]: 76.22
- logLR, gastrointestinal disorder [2, 7]: 66.93
- logLR, nausea [2, 7]: 351
- logLR, pancreatic carcinoma [2, 7]: 37.15
- logLR, pancreatitis [2, 7]: 599.6
- logLR, pancreatitis acute [2, 7]: 54.4
- logLR, vomiting [2, 7]: 332.8
- logLR, decreased appetite ([2]; SOC General disorders and administration site conditions, FAERS via Open Targets): 42.19
- logLR, blood glucose increased [2, 8]: 43.39
- logLR, glycosylated haemoglobin increased [2, 8]: 60.95
- logLR, heart sounds [2, 8]: 49.27
- logLR, lipase increased [2, 8]: 49.97
- logLR, weight decreased [2, 8]: 122.9
- logLR, dehydration [2, 9]: 53.42
- logLR, euglycaemic diabetic ketoacidosis [2, 9]: 71.84
- logLR, retinopathy [2, 9]: 95.38
- logLR, acute kidney injury ([2]; SOC Renal and urinary disorders, FAERS via Open Targets): 39.07
- logLR, prolonged expiration ([2]; SOC Respiratory disorders, FAERS via Open Targets): 36.95
